Article PMC4364341, “NBD delivery improves the disease phenotype of the golden retriever model of Duchenne muscular dystrophy” (Skeletal Muscle, 2014)

Legend:
[1] = test system: GRMD dogs; assay: Eccentric contraction decrement (ECD), GRMD dogs; assay type: in vivo, dog; details: n = 6; for ECD (1-10): after 10 contractions; for ECD (1-30): after 30 contractions
Text: Eccentric contractions were induced by stimulating the peroneal nerve using square wave pulses of 100 μs duration in a tetanic run for 1 s at a frequency of 50 Hz while simultaneously extending the TTJ with a servomotor (Aurora Scientific, Aurora, ON, Canada). The contraction was held isometric at the optimal joint angle, expressed as Lo here (see discussion above), for the first 900 ms. For the final 100 ms, the muscles of the cranial tibial compartment were stretched by the servomotor at 0.7 Lo/s, such that the muscles were displaced to 107% of Lo. Thus, the muscles of the cranial tibial compartment were repeatedly stretched to induce mechanical damage. Three sets of 10 stretches for a total of 30, each set separated by 4 min, were performed. Contraction-induced injury was quantified by the force (torque) deficit (Fd) using the following equation: Fd = (Maximal isometric tetanic force (Po) before stretch - Po after stretch/Po before stretch) × 100.

[2] = test system: GRMD dogs; assay: Joint and pelvic angles, GRMD dogs; assay type: in vivo, dog; details: n = 6
Text: We previously reported that 6-month-old GRMD dogs have abnormally acute (contracted) TTJ angles while positioned in dorsal recumbence for force measurements. Other investigators have subsequently described methods to measure joint angles at maximal flexion and extension, with associated range of motion, in wild type dogs. The method of Jaegger et al.[29] is now utilized to measure pelvic limb tibiotarsal (hock, ankle), stifle (knee), and coxofemoral (hip) joint angles for ongoing natural history and preclinical trials in our laboratory. In each case, dogs were anesthetized (above) and positioned in lateral recumbence. Angles at rest, maximal flexion, and maximal extension were measured. To objectively characterize the cranioventral shift of the pelvis typically seen in GRMD dogs, we also measured the pelvic angle formed by two lines extending cranially from the tuber ischium, one drawn parallel to the lumbar spine and the other extending to the midpoint of the tuber coxae.

[3] = test system: GRMD dogs; assay: Histopathologic assessment of skeletal muscles, GRMD dogs; assay type: in vivo, dog
Experimental: (§1) For mice muscles, histopathological assessment was performed as earlier described. For canine samples, CS, lateral gastrocnemius, vastus lateralis, and diaphragm muscles were assessed at the end of the 4-month treatment period when dogs were necropsied. Muscle samples were snap frozen in isopentane cooled in liquid nitrogen, and stored at -80°C. A total of 16 dogs (3 wild type, 2 wild type + NBD, 5 untreated GRMD, and 6 GRMD + NBD) were assessed. Serial frozen sections (n = 10 per dog) from each muscle were processed. For each stain, quantitation was performed on three 10 μm sections of each muscle. To determine the degree of inflammation, cells that stained with a canine specific macrophage PM2K antibody were quantitated. Muscle damage was assessed by scoring for IgG-positive myofibers using immunofluorescence, and necrotic foci by hematoxylin and eosin (H&E) staining. Centrally located nuclei (CLN) were quantified on H&E sections to determine the degree of regeneration. Staining was quantitated on an Olympus BX51 microscope with Microsuite Five software (Olympus Soft Imaging Solutions GmbH, Center Valley, PA, USA). A composite score for all four muscles, reflecting muscle injury, inflammation, and regeneration, was determined.

[4] = test system: wild type dogs; details: dog, in vivo
Experimental: as §1

[5] = test system: wild type and GRMD dogs; details: dog, in vivo
Experimental: NBD peptide (TALDWSWLQTE) fused to an Antennapedia protein transduction domain [9] was generated using an ABI 430A solid-phase peptide synthesizer (Applied Biosystems, Foster City, CA, USA) as previously described. NBD solutions (10 mg/mL) for the canine studies were prepared weekly. Needed volumes were calculated based on the current dog body weights, plus estimated weekly gain averages. Compound was weighed on a laboratory balance to the nearest 0.1 g and reconstituted in sterile water. Solution was then sterile-filtered through 0.22 μm filters into a sterile fluid administration bag and refrigerated at 4°C until use. […] Heart and respiratory rate, mucous membrane color, capillary refill time, and body temperature were monitored throughout the perfusion. […] The syringe pump was initially programed to administer the calculated volume over 10 min, but this was extended to 30 min when reactions were seen. Blood pressure was recorded prior to start of perfusion, at 5-min intervals throughout perfusion, and post-perfusion (Cardell® 9405 Multiparameter Monitor, Midmark Corporation, Versailles, OH, USA). Dogs were monitored for adverse reactions throughout the perfusion and for up to 30 min after completion.

[6] = test system: wild type and GRMD dogs; details: dog, in vivo; remark: listed apart in the source
Text: Necropsies were completed on all six of the NBD-treated GRMD dogs and two of the wild type dogs. Sections of kidney, liver, spleen, lung, heart (right and left ventricle), popliteal lymph node, adrenal gland, thyroid, duodenum, large intestine, pancreas, stomach, and cerebrum were collected and fixed in 10% buffered formalin. Tissues were sent to Histo-Scientific Research Laboratories in Frederick, MD, USA, a contract research laboratory where they were processed, embedded in paraffin, sectioned, and stained with H&E. An American College of Veterinary Pathology-certified pathologist evaluated slides.

[7] = test system: utrn-/-;mdx double knock out (dko) mice; details: NBD-treated dko mice; cited from earlier work
Text: Our ability to collectively achieve such a benefit in GRMD dogs, as well as in mdx diaphragm, [9, 13] and dko hearts, supports the pre-clinical efficacy of NBD. Due to interspecies differences among mice, dogs, and humans, it is difficult to say e ...

[8] = NBD group, age 2 months (start of treatment)
[9] = age 6 months, NBD 10 mg/kg IV 3x weekly for 4 months
[10] = Average rescue of 4 muscles, NBD 10 mg/kg IV 3x weekly for 4 months
[11] = Cranial sartorius, NBD 10 mg/kg IV 3x weekly for 4 months, p = 0.14
[12] = Diaphragm, NBD 10 mg/kg IV 3x weekly for 4 months
[13] = Lateral gastroc, NBD 10 mg/kg IV 3x weekly for 4 months
[14] = Vastus lateralis, NBD 10 mg/kg IV 3x weekly for 4 months

TALDWSWLQTE [NBD, NBD peptide (…) fused to an Antennapedia protein transduction domain]
ECD (1-10) [1, 8]: 16.12 ± 5.88%
ECD (1-10) [1, 9]: 32.04 ± 13.46%
ECD (1-30) [1, 8]: 38.67 ± 10.34%
ECD (1-30) [1, 9]: 54.48 ± 13.64%
Hip (Resting) angle [2, 8]: 103.7 ± 2.94
Maximum Hip Flexion [2, 8]: 44.67 ± 5.47 °
Pelvic Angle [2, 8]: 41.00 ± 6.81 °
TTJ Angle [2, 8]: 157.00 ± 9.80 °
Hip (Resting) angle [2, 9]: 100.2 ± 6.01^2
Maximum Hip Flexion [2, 9]: 46.33 ± 3.50^2 °
Pelvic Angle [2, 9]: 36.83 ± 5.12^2 °
TTJ Angle [2, 9]: 160.17 ± 8.84 °
Inflammation (PM2K-positive macrophages), percent difference GRMD vs GRMD + NBD [3, 10]: 35.5%
Necrosis (IgG-positive myofibers), percent difference GRMD vs GRMD + NBD [3, 10]: 30.3%
Regeneration (centrally located nuclei), percent difference GRMD vs GRMD + NBD [3, 10]: 40.8%
Inflammation (PM2K-positive macrophages), percent difference GRMD vs GRMD + NBD ([3]; Cranial sartorius, NBD 10 mg/kg IV 3x weekly for 4 months, p < 0.05): 34%
Necrosis (Foci, H&E), percent difference GRMD vs GRMD + NBD [3, 11]: 25%
Necrosis (IgG-positive myofibers), percent difference GRMD vs GRMD + NBD [3, 11]: 22%
Regeneration (centrally located nuclei), percent difference GRMD vs GRMD + NBD ([3]; Cranial sartorius, NBD 10 mg/kg IV 3x weekly for 4 months, reduced, p < 0.05): 43%
Inflammation (PM2K-positive macrophages), percent difference GRMD vs GRMD + NBD [3, 12]: 37%
Necrosis (Foci, H&E), percent difference GRMD vs GRMD + NBD [3, 12]: 37%
Necrosis (IgG-positive myofibers), percent difference GRMD vs GRMD + NBD [3, 12]: 32%
Regeneration (centrally located nuclei), percent difference GRMD vs GRMD + NBD [3, 12]: 41%
Final Histological Score of Improvement (composite of all four muscles) ([3]; GRMD + NBD vs untreated GRMD, NBD 10 mg/kg IV 3x weekly for 4 months): 35.5%
Reduction of CS myofiber size vs untreated GRMD muscles ([3]; GRMD + NBD, n = 6, 1800 fibers, P <0.05): 46%
Inflammation (PM2K-positive macrophages), percent difference GRMD vs GRMD + NBD [3, 13]: 40%
Necrosis (Foci, H&E), percent difference GRMD vs GRMD + NBD [3, 13]: 34%
Regeneration (centrally located nuclei), percent difference GRMD vs GRMD + NBD [3, 13]: 35%
Inflammation (PM2K-positive macrophages), percent difference GRMD vs GRMD + NBD [3, 14]: 31%
Necrosis (IgG-positive myofibers), percent difference GRMD vs GRMD + NBD [3, 14]: 32%
Regeneration (centrally located nuclei), percent difference GRMD vs GRMD + NBD [3, 14]: 44%
Histopathological lesions in NBD treated versus untreated wild type dogs [4]: negligible
Blood pressure during administration [5]: decreased
Onset of infusion reactions (time of treatment) ([5]; iv, 10 mg/kg): approximately 1 month
Necropsy findings [6]: histopathological changes related to NBD
Functional response, dko heart [7]: improved back to wild type
